According to the supplement of paper PMC6045584:
± gives the standard deviation of the averaged measurements.

What follows are test systems tested with COc1ccc(C2=N[C@@H](c3ccc(Cl)cc3)[C@@H](c3ccc(Cl)cc3)N2C(=O)N2CCNC(=O)C2)c(OC(C)C)c1 [NUTLIN3] (assay: surviving fraction relative to DMSO-only wells; higher = less growth inhibition). Conditions: 0.5 nM; exposure time: 5 days.
How it was run: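 For each tumour cell line, log-phase cells were put into 384-well plates at 250–500 cells per well, then after 24 hours exposed continuously for five days to inhibitors at 0.5, 1, 5, 10, 50, 100, 500 and 1000 nM. Viability was assessed by CellTiter-Glo luminescence, with surviving fraction expressed relative to the median of DMSO-only wells. Lines were screened three times and retained only if replicate Pearson r exceeded 0.7 and median Z' exceeded 0.3.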

Test System	surviving fraction
SCC36 HEADNECK	1.07 ± 0.15
OS25HAL BONE	0.975 ± 0.014
HCC1806 BREAST	1.07 ± 0.079
HU09 BONE	1.03 ± 0.17
SG43 HEADNECK	1.11 ± 0.1
U2OS BONE	1.02 ± 0.037
HOSMNG BONE	1.04 ± 0.056
CASKI CERVIX	0.945 ± 0.0061
SUM44 BREAST	0.96 ± 0.028
MDAMB231 BREAST	0.97 ± 0.013
CAL51 BREAST	0.944 ± 0.012
MDAMB436 BREAST	0.91 ± 0.076
HSSYII SYNOVIAL	0.951 ± 0.02
RDES SOFT TISSUE	1.25 ± 0.074
MDAMB157 BREAST	0.957 ± 0.071
CHLA90 AUTONOMIC GANGLIA	1.02 ± 0.018
CADOES1 SOFT TISSUE	0.96 ± 0.077
SG31 HEADNECK	1.08 ± 0.067
SCC47 HEADNECK	1.08 ± 0.082
S68 BREAST	0.854 ± 0.16
SNU475 LIVER	1.02 ± 0.066

Test System	surviving fraction
22RV1 PROSTATE	1.01 ± 0.046
SG32 HEADNECK	1.27 ± 0.11
SCC003 HEADNECK	1.05 ± 0.12
JURKAT HAEMATOPOIETIC AND LYMPHOID TISSUE	1.11 ± 0.031
HT1080 SOFT TISSUE	1.02 ± 0.019
CAL120 BREAST	0.921 ± 0.03
MCF7 BREAST	0.881 ± 0.036
MFM223 BREAST	1.07 ± 0.079
LNCAP PROSTATE	1.03 ± 0.034
PCI30 HEADNECK	1.01 ± 0.034
OSHN BONE	1.06 ± 0.036
SG28 HEADNECK	1.13 ± 0.065
HOS BONE	1.011 ± 0.0078
HUO3N1 BONE	1.07 ± 0.046
BT20 BREAST	1.1 ± 0.18
SJSA1 BONE	1 ± 0.048
JIMT1 BREAST	0.985 ± 0.011
HCC78 LUNG	1 ± 0.075
NY BONE	1 ± 0.019
NOS1 BONE	1.14 ± 0.072

Same assay, conditions: 1 nM; exposure time: 5 days

Test System	surviving fraction
SCC36 HEADNECK	1.04 ± 0.087
OS25HAL BONE	0.998 ± 0.018
HCC1806 BREAST	1.04 ± 0.1
HU09 BONE	0.933 ± 0.1
SG43 HEADNECK	0.915 ± 0.071
U2OS BONE	1.05 ± 0.037
HOSMNG BONE	1.03 ± 0.033
CASKI CERVIX	0.899 ± 0.053
SUM44 BREAST	0.915 ± 0.056
MDAMB231 BREAST	0.976 ± 0.028
CAL51 BREAST	0.928 ± 0.059
MDAMB436 BREAST	0.835 ± 0.092
HSSYII SYNOVIAL	0.904 ± 0.051
RDES SOFT TISSUE	1.32 ± 0.076
MDAMB157 BREAST	0.961 ± 0.093
CHLA90 AUTONOMIC GANGLIA	1.05 ± 0.043
CADOES1 SOFT TISSUE	0.925 ± 0.056
SG31 HEADNECK	1.05 ± 0.2
SCC47 HEADNECK	1.03 ± 0.023
S68 BREAST	0.785 ± 0.32
SNU475 LIVER	0.981 ± 0.017

Test System	surviving fraction
22RV1 PROSTATE	1.04 ± 0.013
SG32 HEADNECK	1.14 ± 0.29
SCC003 HEADNECK	1.01 ± 0.081
JURKAT HAEMATOPOIETIC AND LYMPHOID TISSUE	1.1 ± 0.015
HT1080 SOFT TISSUE	0.978 ± 0.031
CAL120 BREAST	0.919 ± 0.051
MCF7 BREAST	0.841 ± 0.038
MFM223 BREAST	1.04 ± 0.13
LNCAP PROSTATE	1.01 ± 0.078
PCI30 HEADNECK	0.93 ± 0.019
OSHN BONE	1.05 ± 0.057
SG28 HEADNECK	1.03 ± 0.14
HOS BONE	1.03 ± 0.014
HUO3N1 BONE	0.988 ± 0.032
BT20 BREAST	1.11 ± 0.14
SJSA1 BONE	0.997 ± 0.041
JIMT1 BREAST	0.976 ± 0.018
HCC78 LUNG	0.918 ± 0.053
NY BONE	0.95 ± 0.034
NOS1 BONE	0.978 ± 0.1

Same assay, conditions: 5 nM; exposure time: 5 days

Test System	surviving fraction
SCC36 HEADNECK	1.16 ± 0.014
OS25HAL BONE	0.979 ± 0.013
HCC1806 BREAST	1.07 ± 0.15
HU09 BONE	1.02 ± 0.14
SG43 HEADNECK	0.928 ± 0.11
U2OS BONE	1.04 ± 0.039
HOSMNG BONE	0.979 ± 0.098
CASKI CERVIX	0.9873 ± 0.0035
SUM44 BREAST	1.02 ± 0.03
MDAMB231 BREAST	1.01 ± 0.017
CAL51 BREAST	0.999 ± 0.053
MDAMB436 BREAST	0.923 ± 0.033
HSSYII SYNOVIAL	0.976 ± 0.041
RDES SOFT TISSUE	1.07 ± 0.044
MDAMB157 BREAST	0.97 ± 0.11
CHLA90 AUTONOMIC GANGLIA	1 ± 0.039
CADOES1 SOFT TISSUE	0.982 ± 0.036
SG31 HEADNECK	1.06 ± 0.12
SCC47 HEADNECK	1.14 ± 0.026
S68 BREAST	0.92 ± 0.03
SNU475 LIVER	0.988 ± 0.045

Test System	surviving fraction
22RV1 PROSTATE	0.96 ± 0.068
SG32 HEADNECK	1 ± 0.13
SCC003 HEADNECK	1.03 ± 0.12
JURKAT HAEMATOPOIETIC AND LYMPHOID TISSUE	1.07 ± 0.015
HT1080 SOFT TISSUE	0.998 ± 0.012
CAL120 BREAST	0.933 ± 0.039
MCF7 BREAST	0.819 ± 0.013
MFM223 BREAST	1.08 ± 0.058
LNCAP PROSTATE	0.955 ± 0.065
PCI30 HEADNECK	1.04 ± 0.026
OSHN BONE	1.06 ± 0.034
SG28 HEADNECK	1.02 ± 0.12
HOS BONE	1.008 ± 0.01
HUO3N1 BONE	1.039 ± 0.0087
BT20 BREAST	1.09 ± 0.07
SJSA1 BONE	1.05 ± 0.053
JIMT1 BREAST	1.01 ± 0.037
HCC78 LUNG	0.918 ± 0.19
NY BONE	0.997 ± 0.033
NOS1 BONE	1.142 ± 0.0078

Same assay, conditions: 10 nM; exposure time: 5 days

Test System	surviving fraction
SCC36 HEADNECK	1.04 ± 0.03
OS25HAL BONE	0.974 ± 0.03
HCC1806 BREAST	1.08 ± 0.13
HU09 BONE	1.03 ± 0.059
SG43 HEADNECK	0.772 ± 0.064
U2OS BONE	1.02 ± 0.049
HOSMNG BONE	0.975 ± 0.076
CASKI CERVIX	0.979 ± 0.027
SUM44 BREAST	1.04 ± 0.051
MDAMB231 BREAST	0.977 ± 0.019
CAL51 BREAST	0.979 ± 0.018
MDAMB436 BREAST	0.928 ± 0.063
HSSYII SYNOVIAL	0.9313 ± 0.0089
RDES SOFT TISSUE	1.18 ± 0.14
MDAMB157 BREAST	0.913 ± 0.12
CHLA90 AUTONOMIC GANGLIA	0.923 ± 0.025
CADOES1 SOFT TISSUE	0.801 ± 0.17
SG31 HEADNECK	0.921 ± 0.035
SCC47 HEADNECK	1.135 ± 0.0096
S68 BREAST	0.976 ± 0.16

Test System	surviving fraction
SNU475 LIVER	0.984 ± 0.032
22RV1 PROSTATE	0.99367 ± 0.00058
SG32 HEADNECK	1.12 ± 0.095
SCC003 HEADNECK	1 ± 0.088
JURKAT HAEMATOPOIETIC AND LYMPHOID TISSUE	1.06 ± 0.017
HT1080 SOFT TISSUE	1.02 ± 0.018
CAL120 BREAST	0.924 ± 0.02
MCF7 BREAST	0.821 ± 0.038
MFM223 BREAST	1.06 ± 0.027
LNCAP PROSTATE	1 ± 0.086
PCI30 HEADNECK	1.06 ± 0.064
OSHN BONE	1.05 ± 0.044
SG28 HEADNECK	1.07 ± 0.12
HOS BONE	0.994 ± 0.02
HUO3N1 BONE	1 ± 0.034
BT20 BREAST	1.01 ± 0.14
SJSA1 BONE	1 ± 0.064
JIMT1 BREAST	0.9965 ± 0.0076
HCC78 LUNG	0.883 ± 0.18
NY BONE	1.015 ± 0.0098
